Reference: publication PMC5556071, “ATR inhibition facilitates targeting of leukemia dependence on convergent nucleotide biosynthetic pathways” (Nature Communications, 2017)

Key:
RRM2 pT33 = test: Phosphoproteomic nLC-MS/MS analysis of RRM2 phosphorylation; assay type: cell-based, human; parameters: key to RNR pT33: ↓: partial decrease/inhibition; ↓↓↓: nearly complete inhibition; ↑: increase; ⟷: no change
Description: against both the Uniprot human FASTA database and a decoy database of the Uniprot human database which read from C-terminus to N-terminus; Percolator was used to filter the data at 1% FDR at both the peptide and […]
Phosphoproteomic analyses. CCRF-CEM cells were prepared same as the asynchronous CEM cells total protein digests above, except that a total of 7.5 mg total protein from 1 x 10^8 cells was collected per treatment condition for phosphoproteomic analysis. tC18 Sep-Pak cartridges (Waters) were used for peptide desalting and Pierce Quantitative Colorimetric Peptide Assay was performed prior to phosphopeptide enrichment.
Hydrophilic interaction chromatography (HILIC) and immobilized metal affinity chromatography (IMAC) were performed same as previously described4. Data dependent nLC-MS/MS was performed on Thermo QExactive Plus same as above. Raw data was searched against Uniprot human database using MaxQuant 1.5.3.30 with the following search parameters: trypsin cleavage allowing up to 2 missed cleavages, fixed modification of carbamidomethyl to cysteines, variable modifications of acetylation to protein N-terminus, methionine oxidation, and phosphorylation to serine, threonine, and tyrosine, 10 ppm and 20 mmu mass errors for full MS and MS/MS, respectively, score of 40 or greater for modified peptides, and 1% false-discovery rate on peptide and protein identifications. Identified phosphopeptides were manually quantified by area-based extracted ion chromatograms of the monoisotopic peak. […]
Plasma samples were processed the same way as the calibration standard samples. 20 μL samples were injected onto a reverse phase column, (Thermo Scientific Hypersil GOLD column 3.0 µm; 2.1 x 100 mm) equilibrated in water/formic acid, 100/0.1, and eluted (200 μL/min) with an increasing concentration of solvent […]
The effluent from the column was directed to the Agilent Jet Stream ion source connected to the triple quadrupole mass spectrometer (Agilent 6460) operating in the multiple reaction monitoring (MRM) mode using previously optimized settings. The following drug precursor→fragment ion transitions were used: 3-AP

[1] = tested on: p185BCR-ABL Arf–/– pre-B-ALL; test: Systemic primary pre-B-ALL leukemia model, survival, bioluminescence, body weight; assay type: in vivo
Description: For development of systemic leukemia model, C57Bl/6 female mice were injected intravenously with 50,000 firefly luciferase expressing p185^BCR-ABL Arf ^−/− pre-B-ALL cells[12], [31]. The leukemic burden was monitored using bioluminescence imaging. All drug treatments were performed in an oral formulation consisting of PEG-200, Transcutol, Labrasol and Tween-80 blended in a ratio of 5:3:1:1. The oral gavage volume was 50 µl per dose (a detailed description is available in the Supplementary Information).
All C57BL/6 female mice were purchased from the UCLA Radiation Oncology breeding colony. […] For oral administration, single agent or combination of drugs were solubilized in a formulation consisting of the following: PEG-200: Transcutol: Labrasol: Tween-80 mixed in 5:3:1:1 ratio. For i.p. administration, the drugs were solubilized in PEG-400 and 1 mM Tris-HCl in a 1:1 (v:v) ratio. Dasatinib (LC Laboratories) was solubilized in 80 mM citric acid (pH 3.1) and was administered at a dose of 10 mg kg^–1 by oral gavage. 2 × 10^5 luciferase expressing p185^BCR-ABL Arf ^−/− pre-B-ALL cells were injected intravenously into C57BL/6 female mice for leukemia induction. […] The mice were observed daily and those that became moribund during the trials, (paralysis of hind limbs, significant body weight loss) were sacrificed immediately.
Mice were anesthetized with 2% isoflurane followed by intraperitoneal injection of 50 μl (50 mg ml^−1) substrate D-luciferin (Sigma, #L9504). The mice were imaged with the IVIS 100 Bioluminescence Imaging scanner 10 min after luciferin administration. All mice were imaged in groups of five with 1-minute exposure time, and the images were acquired at low binning.

[2] = asynchronous CEM, VE-822 1 µM, 12 h

For `CNCc1ccc(-c2cc(-c3nc(-c4ccc(S(=O)(=O)C(C)C)cc4)cnc3N)on2)cc1` [VE-822], which “decrease in the phosphorylation of RRM2 on threonine 33 (pT33)” value (RRM2 pT33; [2]) is on record?
The value was ~ 50%.

What about the “mean fold change of RRM2 pT33 normalized to total RRM2” value (RRM2 pT33; [2]) of the same compound?
Its value is 0.43 ± 0.1 fold.

What about the “observed fold decrease for pT33 (phosphoproteomic nLC-MS/MS)” value (RRM2 pT33; [2]) of the same compound?
Its value is 0.34 fold.

What about the “RNR pT33” value (RRM2 pT33; summary Fig. 2g, CEM cells) of the same compound?
The value was “↓”.

And the “efficacy in vivo of VE-822 alone” value ([1]; VE-822 40 mg kg–1 once daily)?
The value was “only marginally efficacious”.

What about the “time by which all treated mice died of leukemia” value ([1]; after inoculation, VE-822 40 mg kg–1 once daily) of the same compound?
The value was at most 38 days.

What about the Median survival ([1]; after treatment initiation, 40 mg kg–1 day–1 VE-822, n = 6) of the same compound?
The Median survival was 32.5 days.
